Where two headings read alike, the source gives them in different places.
What was measured:
β-lactamase P99 = target: T1, β-lactamase P99 (Enterobacter cloacae, UniProt P05364); assay: biochemical
T1 construct: The β-lactamases are isolated from bacterial strains which are resistant to penicillins and cephalosporins; endogenous in cells; host or cells: Enterobacter cloacae 293HT6 (natural producer; French-press lysate, 100,000 g supernatant)
Method: (§1) A. Preparation of the β-lactamases Tem-1 and P99
(§2) The β-lactamases are isolated from bacterial strains which are resistant to penicillins and cephalosporins (Tem1 and P99 are produced by E.coli 250HT21 and E.Cloacae 293HT6 respectively).
(§3) The bacteria are cultured at 37° C. in heart-brain culture at 37 g/l (DIFCO). They are harvested at the end of the exponential phase, cooled down and centrifuged. The bacterial pellets are taken up in sodium phosphate buffer 50 mM, pH 7.0 and centrifuged again. The bacteria are taken up in two volumes of the same buffer and lyzed using a French-Press maintained at 4° C. After centrifugation for 1 hour at 100,000 g, at 4° C., the supernatants containing the soluble fraction of the bacterial extracts are recovered and frozen at −80° C.
(§4) The method uses Nitrocefin (OXOID), cephalosporin chromogene as substrate, of which the product hydrolyzed by the B-lactamases is red and absorbs at 485 nm. Beta-lactamase activity is determined kinetically by measurement of the absorbance variation at 485 nm resulting from the hydrolysis of the substrate using a plate spectrophotometer (Spectra Max More Molecular Devices). The experiments are carried out at 37° C. The quantity of enzyme was normalized and the measurements are carried out at initial speed.
(§5) Two measurements were carried out, without preincubation and with preincubation of the enzyme and inhibitor (5 mn), in order to test the irreversibility of the reaction. The products are tested at 6 or 8 concentrations in duplicate. The reaction mixture contains 100 μM of Nitrocefin and 50 mM sodium phosphate buffer pH7.0.
(§6) The hydrolysis speeds are measured with and without inhibitor. The concentration of inhibitor which inhibits by 50% the hydrolysis reaction of Nitrocefin by the enzyme (CI50) is determined. The data is processed using GraFit software (Erathycus Software).

E. coli 250CF1 (Tem3) = assay: microbe, parasite or virus in culture; assay type: cell-based; details: compound at 5 mg/l, 24 hours at 37° C.; for MIC of Cefotaxime in combination with the compound: Trial 4, 250CF1 E. coli Tem3; for MIC of Piperacillin in combination with the compound: Trial 4, 250CF1 Tem3
Method: (§7) The operation is carried out as follows, using the so-called micro-dilution in liquid medium method.
(§8) A series of concentrations of the β-lactamine is prepared in the presence of a constant concentration (5 mg/l) of the product to be studied, each is then seeded with various bacterial strains.
(§9) After incubation for 24 hours in a heating chamber at 37° C., the growth inhibition is evaluated by the absence of any bacterial development, which allows the minimal inhibitory concentrations (MIC) for each strain to be determined, expressed in milligrams/l.

[1] = system: E. cloacae 293HT6 (Class C); assay: MIC, micro-dilution in liquid medium, β-lactamine with product at 5 mg/l; assay type: cell-based; details: compound at 5 mg/l, 24 hours at 37° C.; for MIC of Piperacillin in combination with the compound: Trial 9, 293HT6 Class; for MIC of Cefotaxime in combination with the compound: Trial 9, 293HT6 E. cloacae Class C
Method: as §7, §8, §9

E. coli 250BE1 (SHV4) = assay: as above; assay type: cell-based; details: compound at 5 mg/l, 24 hours at 37° C.; for MIC of Cefotaxime in combination with the compound: Trial 7, 250BE1 E. coli SHV4; for MIC of Piperacillin in combination with the compound: Trial 7, 250BE1 SHV4
Method: as §7, §8, §9

E. coli 250HT21 (Tem1) = assay: as above; assay type: cell-based; details: compound at 5 mg/l, 24 hours at 37° C.; for MIC of Cefotaxime in combination with the compound: Trial 2, 250HT21 E. coli Tem1; for MIC of Piperacillin in combination with the compound: Trial 2, 250HT21 Tem1
Method: as §7, §8, §9

E. coli 250HT22 (Tem2) = assay: as above; assay type: cell-based; details: compound at 5 mg/l, 24 hours at 37° C.; for MIC of Cefotaxime in combination with the compound: Trial 3, 250HT22 E. coli Tem2; for MIC of Piperacillin in combination with the compound: Trial 3, 250HT22 Tem2
Method: as §7, §8, §9

[2] = system: E. coli 250HT23 (Class D); assay: as above; assay type: cell-based; details: compound at 5 mg/l, 24 hours at 37° C.; for MIC of Piperacillin in combination with the compound: Trial 8, 250HT23 Class D; for MIC of Cefotaxime in combination with the compound: Trial 8, 250HT23 E. coli Class D
Method: as §7, §8, §9

E. coli 250HT26 (SHV1) = assay: as above; assay type: cell-based; details: compound at 5 mg/l, 24 hours at 37° C.; for MIC of Cefotaxime in combination with the compound: Trial 6, 250HT26 E. coli SHV1; for MIC of Piperacillin in combination with the compound: Trial 6, 250HT26 SHV1
Method: as §7, §8, §9

E. coli 250SJ1 (Tem7) = assay: as above; assay type: cell-based; details: compound at 5 mg/l, 24 hours at 37° C.; for MIC of Cefotaxime in combination with the compound: Trial 5, 250SJ1 E. coli Tem7; for MIC of Piperacillin in combination with the compound: Trial 5, 250SJ1 Tem7
Method: as §7, §8, §9

[3] = system: P. aeruginosa 391HT7 (PSE); assay: as above; assay type: cell-based; details: compound at 5 mg/l, 24 hours at 37° C.; for MIC of Cefotaxime in combination with the compound: Trial 11, 391HT7 P. aeruginosa PSE; for MIC of Piperacillin in combination with the compound: Trial 11, 391HT7 PSE
Method: as §7, §8, §9

[4] = system: P. aeruginosa 391HT8 (PSE); assay: as above; assay type: cell-based; details: compound at 5 mg/l, 24 hours at 37° C.; for MIC of Cefotaxime in combination with the compound: Trial 12, 391HT8 P. aeruginosa PSE; for MIC of Piperacillin in combination with the compound: Trial 12, 391HT8 PSE
Method: as §7, §8, §9

[5] = system: S. aureus 011GO66 (PeniR); assay: as above; assay type: cell-based; details: compound at 5 mg/l, 24 hours at 37° C.; for MIC of Cefotaxime in combination with the compound: Trial 1, 011GO66 S. aureus PeniR; for MIC of Piperacillin in combination with the compound: Trial 1, 011GO66 peniR
Method: as §7, §8, §9

Serratia 301HT6 = assay: as above; assay type: cell-based; details: compound at 5 mg/l; Trial 10, 301HT6 Serratia; 24 hours at 37° C.
Method: as §7, §8, §9

β-lactamase TEM1 = target: T2, β-lactamase TEM1 (Escherichia coli, UniProt P62593); assay: Inhibition of isolated β-lactamase Tem-1 (Nitrocefin hydrolysis); assay type: biochemical, E.coli 250HT21; details: 100 μM Nitrocefin, 50 mM sodium phosphate buffer pH7.0, 37° C.
T2 construct: The β-lactamases are isolated from bacterial strains which are resistant to penicillins and cephalosporins; endogenous in cells; host or cells: E. coli 250HT21 (natural producer; French-press lysate, 100,000 g supernatant)
T2 sequence (P62593 24-286 limits assumed): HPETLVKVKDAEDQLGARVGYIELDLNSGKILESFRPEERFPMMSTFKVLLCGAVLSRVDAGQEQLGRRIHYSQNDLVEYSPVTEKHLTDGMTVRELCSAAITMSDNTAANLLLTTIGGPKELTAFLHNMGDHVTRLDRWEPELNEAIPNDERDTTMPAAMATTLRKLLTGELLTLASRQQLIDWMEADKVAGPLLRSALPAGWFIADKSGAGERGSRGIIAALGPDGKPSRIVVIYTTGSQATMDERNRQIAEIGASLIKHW
Method: as §1, §2, §3, §4, §5, §6

[6] = 100 μM Nitrocefin, 50 mM sodium phosphate buffer pH7.0, 37° C., read-out: IC50 nM/P99

T1 sequence (P05364 21-381): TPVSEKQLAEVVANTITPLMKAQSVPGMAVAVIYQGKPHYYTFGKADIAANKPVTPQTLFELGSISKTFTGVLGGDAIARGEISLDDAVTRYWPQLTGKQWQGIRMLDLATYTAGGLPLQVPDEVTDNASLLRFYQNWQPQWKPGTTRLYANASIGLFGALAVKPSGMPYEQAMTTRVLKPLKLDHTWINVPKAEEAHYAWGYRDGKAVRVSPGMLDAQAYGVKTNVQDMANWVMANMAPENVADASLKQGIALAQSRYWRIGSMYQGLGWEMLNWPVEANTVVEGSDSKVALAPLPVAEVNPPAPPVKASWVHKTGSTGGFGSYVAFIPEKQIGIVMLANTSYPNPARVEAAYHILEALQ

SMILES	MIC of Cefotaxime in combination with the compound (E. coli 250CF1 (Tem3))	MIC of Piperacillin in combination with the compound (E. coli 250CF1 (Tem3)) [µg/mL]	MIC of Piperacillin in combination with the compound [1] [µg/mL]	MIC of Cefotaxime in combination with the compound [1]	MIC of Cefotaxime in combination with the compound (E. coli 250BE1 (SHV4))	MIC of Piperacillin in combination with the compound (E. coli 250BE1 (SHV4)) [µg/mL]	MIC of Cefotaxime in combination with the compound (E. coli 250HT21 (Tem1))	MIC of Piperacillin in combination with the compound (E. coli 250HT21 (Tem1)) [µg/mL]	MIC of Cefotaxime in combination with the compound (E. coli 250HT22 (Tem2))	MIC of Piperacillin in combination with the compound (E. coli 250HT22 (Tem2)) [µg/mL]	MIC of Piperacillin in combination with the compound [2] [µg/mL]	MIC of Cefotaxime in combination with the compound [2]	MIC of Cefotaxime in combination with the compound (E. coli 250HT26 (SHV1))	MIC of Piperacillin in combination with the compound (E. coli 250HT26 (SHV1)) [µg/mL]	MIC of Cefotaxime in combination with the compound (E. coli 250SJ1 (Tem7))	MIC of Piperacillin in combination with the compound (E. coli 250SJ1 (Tem7)) [µg/mL]	MIC of Cefotaxime in combination with the compound [3] [µg/mL]	MIC of Piperacillin in combination with the compound [3] [µg/mL]	MIC of Cefotaxime in combination with the compound [4] [µg/mL]	MIC of Piperacillin in combination with the compound [4] [µg/mL]	other results
NC(=O)[C@@H]1CC[C@@H]2CN1C(=O)N2OS(=O)(=O)O (relative stereo) [Example 33, trans-7-oxo-6-(sulphooxy)-1,6-diazabicyclo[3.2.1]octane-2-carboxamide]	<=0.04 μg/ml	1.2	0.6	<=0.04 μg/ml	<=0.04 μg/ml	1.2	<=0.04 μg/ml	0.3	<=0.04 μg/ml	0.6	2.5	<=0.04 μg/ml	<=0.04 μg/ml	1.2	<=0.04 μg/ml	0.6	20	>40	20	10	IC50 (β-lactamase P99): 330 nM; MIC of Cefotaxime in combination with the compound [5]: 2.5 µg/mL; MIC of Piperacillin in combination with the compound [5]: 1.2 µg/mL; MIC of Cefotaxime in combination with the compound (Serratia 301HT6): 0.08 µg/mL; MIC of Piperacillin in combination with the compound (Serratia 301HT6): 0.6 µg/mL
O=C(NCc1ccccc1)[C@H]1CC[C@@H]2CN1C(=O)N2OS(=O)(=O)[O-].[Na+] (relative stereo) [Example 34, sodium salt of trans-7-oxo-N-(phenylmethyl)-6-(sulphooxy)-1,6-diazabicyclo[3.2.1]octane-2-carboxamide]	0.15 µg/mL	>40	10	0.6 µg/mL	0.08 µg/mL	>40	<=0.04 μg/ml	5	<=0.04 μg/ml	>40	40	<=0.04 μg/ml	<=0.04 μg/ml	20	<=0.04 μg/ml	>40	20	>40	20	>40	IC50 (β-lactamase TEM1): 27 nM; IC50 (β-lactamase P99; [6]): 32 nM; MIC of Cefotaxime in combination with the compound [5]: 1.2 µg/mL; MIC of Piperacillin in combination with the compound [5]: 0.6 µg/mL; MIC of Cefotaxime in combination with the compound (Serratia 301HT6): <=0.04 μg/ml; MIC of Piperacillin in combination with the compound (Serratia 301HT6): 1.2 µg/mL
O=C(NCc1ccccn1)[C@H]1CC[C@@H]2CN1C(=O)N2OS(=O)(=O)[O-].[Na+] (relative stereo) [Example 35, sodium salt of trans-7-oxo-N-(2-pyridinylmethyl)-6-(sulphooxy)-1,6-diazabicyclo[3.2.1]octane-2-carboxamide]	0.15 µg/mL	10	5	0.6 µg/mL	0.08 µg/mL	20	<=0.04 μg/ml	2.5	<=0.04 μg/ml	20	10	<=0.04 μg/ml	<=0.04 μg/ml	5	<=0.04 μg/ml	5	20	>40	20	>40	IC50 (β-lactamase TEM1): 53 nM; IC50 (β-lactamase P99; [6]): 56 nM; MIC of Cefotaxime in combination with the compound [5]: 1.2 µg/mL; MIC of Piperacillin in combination with the compound [5]: 1.2 µg/mL; MIC of Cefotaxime in combination with the compound (Serratia 301HT6): <=0.04 μg/ml; MIC of Piperacillin in combination with the compound (Serratia 301HT6): 1.2 µg/mL
